Assay results reported in US7767659B2, “Synthesis of naturally occurring ecteinascidins and related compounds” (Pharma Mar, S.A., priority 2002, dated 2010).

How the values were obtained:
A-549 = assay: cells; settings: Homo sapiens, A549, 48 h; for GI50: read-out: A549 GI50; for CC50: read-out: A549 LC50; for IC (TGI): read-out: A549 TGI
Protocol: (§1) This form of the assay employs 96 well cell culture microplates of 9 mm diameter (Faircloth, 1988; Mosmann, 1983). Most of the cell lines are obtained from American Type Culture Collection (ATCC) derived from different human cancer types.
(§2) Cells are maintained in RPMI 1640 10% FBS, supplemented with 0.1 g/l penicillin and 0.1 g/l streptomycin sulfate and then incubated at 37° C., 5% CO2 and 98% humidity. For the experiments, cells were harvested from subconfluent cultures using trypsin and resuspended in fresh medium before plating.
(§3) Cells are seeded in 96 well microtiter plates, at 5×10^3 cells per well in aliquots of 195 μl medium, and they are allowed to attach to the plate surface by growing in drug free medium for 18 hours. Afterward, samples are added in aliquots of 5 μl in a ranging from 10 to 10^−8 μg/ml, dissolved in DMSO/EtOH/PBS (0.5:0.5:99). After 48 hours exposure, the antitumor effect are measured by the SRB methodology: cells are fixed by adding 50 μl of cold 50% (wt/vol) trichloroacetic acid (TCA) and incubating for 60 minutes at 4° C. Plates are washed with deionized water and dried. One hundred μl of SRB solution (0.4% wt/vol in 1% acetic acid) is added to each microtiter well and incubated for 10 minutes at room temperature. Unbound SRB is removed by washing with 1% acetic acid. Plates are air dried and bound stain is solubilzed with Tris buffer. Optical densities are read on a automated spectrophotometric plate reader at a single wavelength of 490 nm.
(§4) The values for mean +/− SD of data from triplicate wells are calculated. Some parameters for cellular responses can be calculated: GI=growth inhibition, TGI=total growth inhibition (cytostatic effect) and LC=cell killing (cytotoxic effect).

LoVo = assay: cells; settings: Homo sapiens, LoVo, 48 h; for GI50: read-out: LOVO GI50; for CC50: read-out: LOVO LC50; for IC (TGI): read-out: LOVO TGI
Protocol: as §1, §2, §3, §4

HT-29 = assay: cells; settings: Homo sapiens, HT-29, 48 h; for GI50: read-out: HT29 GI50; for CC50: read-out: HT29 LC50; for IC (TGI): read-out: HT29 TGI
Protocol: as §1, §2, §3, §4

LNCaP = assay: Inhibition of cells growth by colorimetric assay (SRB); settings: Homo sapiens, LNCaP, 48 h; for GI50: read-out: LNCAP GI50; for CC50: read-out: LNCAP LC50; for IC (TGI): read-out: LNCAP TGI
Protocol: as §1, §2, §3, §4

PANC-1 = assay: as above; settings: Homo sapiens, PANC-1, 48 h; for GI50: read-out: PANC-1 GI50; for CC50: read-out: PANC-1 LC50; for IC (TGI): read-out: PANC-1 TGI
Protocol: as §1, §2, §3, §4

SK-MEL-28 = assay: as above; settings: Homo sapiens, SK-MEL-28, 48 h; for GI50: read-out: MEL-28 GI50; for CC50: read-out: MEL-28 LC50; for IC (TGI): read-out: MEL-28 TGI
Protocol: as §1, §2, §3, §4

K-562 = assay: as above; settings: Homo sapiens, K562, 48 h; for GI50: read-out: K562 GI50; for CC50: read-out: K562 LC50; for IC (TGI): read-out: K562 TGI
Protocol: as §1, §2, §3, §4

LoVo-Dox = assay: as above; settings: Homo sapiens, 48 h; for GI50: read-out: LOVO-DOX GI50; for CC50: read-out: LOVO-DOX LC50; for IC (TGI): read-out: LOVO-DOX TGI
Protocol: as §1, §2, §3, §4

IGROV-ET = assay: as above; settings: Homo sapiens, 48 h; for GI50: read-out: IGROV-ET GI50; for CC50: read-out: IGROV-ET LC50; for IC (TGI): read-out: IGROV-ET TGI
Protocol: as §1, §2, §3, §4

HeLa = assay: as above; settings: Homo sapiens, HeLa, 48 h; for GI50: read-out: HELA GI50; for CC50: read-out: HELA LC50; for IC (TGI): read-out: HELA TGI
Protocol: as §1, §2, §3, §4

IGROV-1 = assay: as above; settings: Homo sapiens, IGROV-1, 48 h; for GI50: read-out: IGROV GI50; for CC50: read-out: IGROV LC50; for IC (TGI): read-out: IGROV TGI
Protocol: as §1, §2, §3, §4

HeLa-APL = assay: as above; settings: Homo sapiens, 48 h; for GI50: read-out: HELA-APL GI50; for CC50: read-out: HELA-APL LC50; for IC (TGI): read-out: HELA-APL TGI
Protocol: as §1, §2, §3, §4

DU-145 = assay: as above; settings: Homo sapiens, DU-145, 48 h; for GI50: read-out: DU145 GI50; for CC50: read-out: DU145 LC50; for IC (TGI): read-out: DU145 TGI
Protocol: as §1, §2, §3, §4

| SMILES | GI50 (A-549) [nM] | CC50 (A-549) [nM] | IC (TGI) (A-549) [nM] | GI50 (LoVo) [nM] | CC50 (LoVo) [nM] | IC (TGI) (LoVo) [nM] | GI50 (HT-29) [nM] | CC50 (HT-29) [nM] | IC (TGI) (HT-29) [nM] | GI50 (LNCaP) [nM] | CC50 (LNCaP) [nM] | IC (TGI) (LNCaP) [nM] | GI50 (PANC-1) [nM] | CC50 (PANC-1) [nM] | IC (TGI) (PANC-1) [nM] | GI50 (SK-MEL-28) [nM] | CC50 (SK-MEL-28) [nM] | IC (TGI) (SK-MEL-28) [nM] | GI50 (K-562) [nM] | CC50 (K-562) [nM] | further results |
| --- | --- | --- | --- | --- | --- | --- | --- | --- | --- | --- | --- | --- | --- | --- | --- | --- | --- | --- | --- | --- | --- |
| COc1c(C)cc2c(c1O)[C@H]1N[C@@H](C2)[C@H](C#N)N2C1[C@@H]1SCC(=O)C(=O)OC[C@H]2c2c3c(c(C)c(OC(C)=O)c21)OCO3 (stereo partly drawn) [compound 42] | 57.4 | 2370 | 147 | 37.7 | 2930 | 72.6 | 39.7 | 16500 | 131 | 5.96 | 63.7 | 22.4 | 39 | 5270 | 11.5 | 30.1 | 107 | 56.8 | 17.8 | 694 | IC (TGI) (K-562): 59.6 nM; GI50 (LoVo-Dox): 515 nM; CC50 (LoVo-Dox): 16500 nM; IC (TGI) (LoVo-Dox): 1440 nM; GI50 (IGROV-ET): 280 nM; CC50 (IGROV-ET): 16500 nM; IC (TGI) (IGROV-ET): 1020 nM; GI50 (HeLa): 28.1 nM; CC50 (HeLa): 139 nM; IC (TGI) (HeLa): 62.5 nM; GI50 (IGROV-1): 28.6 nM; CC50 (IGROV-1): 153 nM; IC (TGI) (IGROV-1): 66.3 nM; GI50 (HeLa-APL): 34.6 nM; CC50 (HeLa-APL): 130 nM; IC (TGI) (HeLa-APL): 67 nM; GI50 (DU-145): 37.4 nM; CC50 (DU-145): 247 nM; IC (TGI) (DU-145): 82.5 nM |
| C=CCN1[C@@H]2c3c(cc(C)c(OC)c3O)C[C@H]1[C@H](C#N)N1C2[C@@H]2SC[C@]3(NCCc4c3[nH]c3ccccc43)C(=O)OC[C@H]1c1c3c(c(C)c(OC(C)=O)c12)OCO3 (stereo partly drawn) [compound 55] | 68.4 | 1220 | 286 | 151 | 837 | 356 | 75.7 | 12700 | 1810 | 17.1 | 75.7 | 36 | 148 | 12700 | 1900 | 88.6 | 698 | 265 | 58.4 | 1040 | IC (TGI) (K-562): 272 nM; GI50 (LoVo-Dox): 333 nM; CC50 (LoVo-Dox): 12700 nM; IC (TGI) (LoVo-Dox): 1570 nM; GI50 (IGROV-ET): 248 nM; CC50 (IGROV-ET): 4180 nM; IC (TGI) (IGROV-ET): 624 nM; GI50 (HeLa): 148 nM; CC50 (HeLa): 887 nM; IC (TGI) (HeLa): 363 nM; GI50 (IGROV-1): 69.2 nM; CC50 (IGROV-1): 1580 nM; IC (TGI) (IGROV-1): 271 nM; GI50 (HeLa-APL): 111 nM; CC50 (HeLa-APL): 915 nM; IC (TGI) (HeLa-APL): 323 nM; GI50 (DU-145): 59 nM; CC50 (DU-145): 12700 nM; IC (TGI) (DU-145): 247 nM |
| COc1c(C)cc2c(c1O)[C@H]1N[C@@H](C2)[C@H](C#N)N2C1[C@@H]1SC[C@]3(NCCc4c3[nH]c3ccccc43)C(=O)OC[C@H]2c2c3c(c(C)c(OC(C)=O)c21)OCO3 (stereo partly drawn) [compound 59] | 15.9 | 273 | 48.5 | 5.8 | 1190 | 23.3 | 3.83 | 4280 | 16 | 1.03 | 6.43 | 2.67 | 4.76 | 3750 | 42.3 | 3.56 | 3040 | 11 | 1.8 | 3290 | IC (TGI) (K-562): 9.83 nM; GI50 (LoVo-Dox): 123 nM; CC50 (LoVo-Dox): 3930 nM; IC (TGI) (LoVo-Dox): 709 nM; GI50 (IGROV-ET): 4.48 nM; CC50 (IGROV-ET): 3040 nM; IC (TGI) (IGROV-ET): 107 nM; GI50 (HeLa): 2.44 nM; CC50 (HeLa): 10.6 nM; IC (TGI) (HeLa): 5.08 nM; GI50 (IGROV-1): 3.01 nM; CC50 (IGROV-1): 110 nM; IC (TGI) (IGROV-1): 7.33 nM; GI50 (HeLa-APL): 3.32 nM; CC50 (HeLa-APL): 59.2 nM; IC (TGI) (HeLa-APL): 7.69 nM; GI50 (DU-145): 4.09 nM; CC50 (DU-145): 1640 nM; IC (TGI) (DU-145): 10.2 nM |
